Experiment: Solvent for extracting tyramides from dissected tissue
Type: physicochemical
Details: extraction of dissected tissue
Description: Mature male […] (winged male sexuals) were used in all experiments. Maturity could only be determined upon dissection and determination of whether or not the male's testes were degenerated. This is the key indicator of maturity. See Ball and Vinson, Int. J. Insect Morphol. Embryol. 13:283-294 (1984) for a description and figure of the fire ant male genitalia. Males were discarded if their testes were not degenerated. Dissection of the male reproductive system was carried out in a drop of water. The entire system included pairs of degenerated testes, seminal vesicle, accessory glands, and the single external genitalia. After dissection of the entire system the three sections were further dissected: A) degenerated testes and seminal vesicle; B) accessory glands; and C) external genitalia. […]

- suitability of methylene chloride as solvent: poor solvent
Compound: CC(=O)NCCc1ccc(O)cc1 [Compound 1, acetyl tyramide]
